# Reference: patent US20090238808A1, “Process for the identification of novel enzyme interacting compounds” (priority 2005, published 2009)
# Columns and labels:
# [1] = target: T1, Glycogen Synthase Kinase 3 beta (Homo sapiens, UniProt P49841); assay: In-lysate competition binding with kinobeads, Jurkat lysate, iTRAQ MS; conditions: for Relative Intensity, GSK3B: DMSO control = 1.0
# T1 construct: Aliqots of Jurkat lysate (10 mg protein) were incubated with different Bis VIII concentrations; endogenous in cells; host or cells: Jurkat clone E6-1 lysate
# T1 sequence (P49841 whole entry): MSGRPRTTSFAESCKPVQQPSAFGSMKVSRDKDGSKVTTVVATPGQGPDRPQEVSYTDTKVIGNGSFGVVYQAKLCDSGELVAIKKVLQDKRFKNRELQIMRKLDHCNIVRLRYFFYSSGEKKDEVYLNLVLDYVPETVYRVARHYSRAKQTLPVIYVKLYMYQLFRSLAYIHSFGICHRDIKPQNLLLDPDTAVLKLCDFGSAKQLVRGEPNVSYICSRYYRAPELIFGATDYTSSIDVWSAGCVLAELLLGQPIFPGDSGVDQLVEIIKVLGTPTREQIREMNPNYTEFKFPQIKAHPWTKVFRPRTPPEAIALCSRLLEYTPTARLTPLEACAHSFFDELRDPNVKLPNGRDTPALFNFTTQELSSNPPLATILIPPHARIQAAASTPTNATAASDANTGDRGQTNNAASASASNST
# Protocol: (§1) This example illustrates competition binding in cell lysates (see particularly the third aspect of the invention). A test compound, Bisindolylmaleimide VIII (Bis VIII, a well known kinase inhibitor; Davies et al., 2000. Specificity and mechanism of action of some commonly used protein kinase inhibitors. Biochemical Journal 351 (Pt 1): 95-105) was added to a cell lysate thereby allowing the test compound to bind to the target proteins in the lysate. Then the lysate was contacted with the kinobeads affinity matrix to capture remaining free target proteins. The proteins bound to the kinobeads matrix were then eluted with detergent-containing buffer, separated on a SDS-polyacryamide gel and analyzed by immunodetection (Western blots) or mass spectrometry detection.
# (§2) For the quantitative detection of proteins by mass spectrometry proteins were eluted from the affinity matrix and subsequently separated by SDS-Polyacrylamide gel elecrophoresis. Suitable gel areas were cut out and subjected to in-gel proteolytic digestion with trypsin.
# (§3) Four tryptic digest samples (corresponding to three different Bis VIII concentrations in the lysate and one DMSO control) were labeled with ITRAQ reagents and the combined samples were analyzed in a single LC-MS/MS mass spectrometry analysis followed by peak quantification in the MS/MS spectrum (Ross et al., 2004. Multiplexed protein quantitation in Saccharomyces cerevisiae using amine-reactive isobaric tagging reagents. Mol. Cell. Proteomics 3(12): 1154-1169). […] Binding curves for individual kinases are shown (FIG. 5). The relative intensity 50 (RI50) values representing the affinity of kinase-compound pairs are similar to IC50 values reported by kinase enzyme assays (Davies et al., 2000. Specificity and mechanism of action of some commonly used protein kinase inhibitors. Biochemical Journal 351 (Pt 1): 95-105).
# (§4) Aliqots of Jurkat lysate (10 mg protein) were incubated with different Bis VIII concentrations for one hour at 4° C. (0.025 μM, 0.074 μM, 0.22 μM, 0.67 μM, 2.0 μM and 6.0 μM final concentration of Bis VIII). To this end Bis VIII solutions were prepared in 100% DMSO as solvent that corresponded to 200 fold desired final Bis VIII concentration (Bis VIII from Alexis Biochemicals cat. number ALX 270-056). Five μl of these solutions were added to 1 ml of lysate resulting in the indicated final concentrations. For a control experiment 5 μl of DMSO without Bis VIII were used.
# (§5) To each preincubated lysate sample 40 μl of kinobeads (see example 1) were added and incubated for one hour at 4° C. During the incubation the tubes were rotated on an end-over-end shaker (Roto Shake Genie, Scientific Industries Inc.). Beads were collected by centrifugation, transfered to Mobicol-columns (MoBiTech 10055) and washed with 10 ml 1×DP buffer containing 0.4% NP40 detergent, followed by a wash with 5 ml 1×DP buffer with 0.2% NP40. To elute the bound proteins, 100 μl 2×SDS sample buffer was added, the column was heated for 30 minutes at 50° C. and the eluate was transferred to a microfuge tube by centrifugation. Proteins were then separated by SDS-Polyacrylamide electrophoresis (SDS-PAGE). The composition and preparation of buffers is described in example 2.
# (§6) The peptide extracts of samples treated with different concentrations of the test compound (0.074 μM, 0.22 μM and 0.67 μM Bis VIII) and the solvent control (0.5% DMSO) were treated with different isomers of the isobaric tagging reagent (iTRAQ Reagents Multiplex Kit, part number 4352135, Applied Biosystems, Foster City, Calif., USA). The iTRAQ reagents are a set of multiplexed, amine-specific, stable isotope reagents that can label all peptides in up to four different biological samples enabling simultaneous identification and quantitation of peptides. The iTRAQ reagents were used according to instructions provided by the manufacturer. […]
# protein kinase C beta = protein kinase C beta (Homo sapiens, UniProt P05771); assay: as above; conditions: for Relative Intensity, PKCb (PRKCB1): DMSO control = 1.0
# Sequence of protein kinase C beta (P05771 whole entry): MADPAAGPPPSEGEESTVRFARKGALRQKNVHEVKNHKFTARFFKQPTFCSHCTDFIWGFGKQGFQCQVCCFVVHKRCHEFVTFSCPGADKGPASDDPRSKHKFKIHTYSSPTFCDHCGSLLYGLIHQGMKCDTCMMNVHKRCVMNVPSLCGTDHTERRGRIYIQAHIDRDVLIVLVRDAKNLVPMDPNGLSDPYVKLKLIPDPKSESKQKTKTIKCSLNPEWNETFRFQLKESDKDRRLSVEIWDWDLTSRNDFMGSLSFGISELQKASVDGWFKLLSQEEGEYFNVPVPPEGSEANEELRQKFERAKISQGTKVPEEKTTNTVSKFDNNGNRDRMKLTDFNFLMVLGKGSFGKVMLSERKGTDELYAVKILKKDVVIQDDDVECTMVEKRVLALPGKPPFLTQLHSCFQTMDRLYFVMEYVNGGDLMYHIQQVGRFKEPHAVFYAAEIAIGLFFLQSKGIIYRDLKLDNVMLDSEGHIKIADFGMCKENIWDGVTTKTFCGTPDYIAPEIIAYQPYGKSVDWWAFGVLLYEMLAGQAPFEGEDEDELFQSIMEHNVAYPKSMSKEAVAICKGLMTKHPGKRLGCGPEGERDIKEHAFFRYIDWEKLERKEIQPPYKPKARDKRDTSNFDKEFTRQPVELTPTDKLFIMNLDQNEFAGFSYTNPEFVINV
# Protocol: as §1, §2, §3, §4, §5, §6
# [2] = target: T2, Glycogen Synthase Kinase 3 alpha (Homo sapiens, UniProt P49840); assay: as above; conditions: for Relative Intensity, GSK3A: DMSO control = 1.0
# T2 construct: endogenous in cells; host or cells: Jurkat clone E6-1 lysate
# T2 sequence (P49840 whole entry): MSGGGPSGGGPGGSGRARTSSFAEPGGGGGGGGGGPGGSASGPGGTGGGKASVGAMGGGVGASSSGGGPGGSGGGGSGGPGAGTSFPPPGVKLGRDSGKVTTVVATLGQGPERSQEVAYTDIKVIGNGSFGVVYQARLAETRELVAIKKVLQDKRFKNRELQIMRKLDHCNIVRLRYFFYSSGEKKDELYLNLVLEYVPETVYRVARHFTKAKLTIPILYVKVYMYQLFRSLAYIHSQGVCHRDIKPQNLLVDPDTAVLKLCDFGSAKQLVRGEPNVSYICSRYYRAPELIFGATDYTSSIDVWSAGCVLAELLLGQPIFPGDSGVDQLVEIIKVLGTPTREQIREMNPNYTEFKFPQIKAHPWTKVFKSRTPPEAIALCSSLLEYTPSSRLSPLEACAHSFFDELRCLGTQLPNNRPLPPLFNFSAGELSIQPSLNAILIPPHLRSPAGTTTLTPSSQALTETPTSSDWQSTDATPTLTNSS
# Protocol: as §1, §2, §3, §4, §5, §6
# ITK = target: T3, ITK (Homo sapiens, UniProt Q08881); assay: In-lysate competition binding with kinobeads, Jurkat lysate, Western blot; conditions: Jurkat lysate preincubated with 0.025-6.0 μM compound
# T3 construct: Aliqots of Jurkat lysate (10 mg protein) were incubated with different Bis VIII concentrations; endogenous in cells; host or cells: Jurkat clone E6-1 lysate
# T3 sequence (Q08881 whole entry): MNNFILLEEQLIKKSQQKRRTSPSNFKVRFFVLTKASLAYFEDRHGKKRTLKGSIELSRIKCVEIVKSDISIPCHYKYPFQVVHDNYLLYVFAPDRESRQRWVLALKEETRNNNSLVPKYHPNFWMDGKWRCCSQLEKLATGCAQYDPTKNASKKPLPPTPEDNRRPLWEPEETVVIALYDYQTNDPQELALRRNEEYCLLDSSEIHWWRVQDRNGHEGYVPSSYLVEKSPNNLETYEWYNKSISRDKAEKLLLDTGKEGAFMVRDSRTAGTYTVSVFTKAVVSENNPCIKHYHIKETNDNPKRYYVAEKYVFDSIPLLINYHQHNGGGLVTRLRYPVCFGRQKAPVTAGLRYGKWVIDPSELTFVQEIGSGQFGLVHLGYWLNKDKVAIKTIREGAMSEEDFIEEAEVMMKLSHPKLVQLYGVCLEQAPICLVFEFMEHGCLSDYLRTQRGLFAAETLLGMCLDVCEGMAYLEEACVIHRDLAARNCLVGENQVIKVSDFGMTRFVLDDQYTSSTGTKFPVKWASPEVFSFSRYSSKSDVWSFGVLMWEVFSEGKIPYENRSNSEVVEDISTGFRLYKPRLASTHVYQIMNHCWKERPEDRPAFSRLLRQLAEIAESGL
# Protocol: as §1
# (§7) For Western blot analysis proteins bound to the affinity matrix were eluted from the affinity matrix and subsequently separated by SDS-Polyacrylamide gel elecrophoresis and transferred to a blotting membrane. Individual kinases were detected with specific antibodies against GSK3alpha, GSK3beta and ITK (FIG. 4A). […] For GSK3beta the signal was quantified and plotted against the Bis VIII concentration added to the cell lysate (FIG. 4B).
# as §4
# (§8) To each preincubated lysate sample 40 μl of kinobeads (see example 1) were added and incubated for one hour at 4° C. During the incubation the tubes were rotated on an end-over-end shaker (Roto Shake Genie, Scientific Industries Inc.). […]
# GSK3alpha = target: T4, GSK3alpha (Homo sapiens, UniProt P49840); assay: as above; conditions: Jurkat lysate preincubated with 0.025-6.0 μM compound
# T4 construct: Aliqots of Jurkat lysate (10 mg protein) were incubated with different Bis VIII concentrations; endogenous in cells; host or cells: Jurkat clone E6-1 lysate
# T4 sequence (P49840 whole entry): as the sequence (P49840 whole entry) above
# Protocol: as §1, §7, §4, §8
# GSK3beta = target: T5, GSK3beta (Homo sapiens, UniProt P49841); assay: as above; conditions: Jurkat lysate preincubated with 0.025-6.0 μM compound
# T5 construct: Aliqots of Jurkat lysate (10 mg protein) were incubated with different Bis VIII concentrations; endogenous in cells; host or cells: Jurkat clone E6-1 lysate
# T5 sequence (P49841 whole entry): as the sequence (P49841 whole entry) above
# Protocol: as §1, §7, §4, §8
# [3] = target: T6, proteins captured on kinobeads from Jurkat cell lysate (Homo sapiens, UniProt P06241); assay: In-lysate competition binding with kinobeads, Jurkat lysate, iTRAQ MS, relative intensity of identified proteins (Table 22); conditions: DMSO control = 1.0
# T6 construct: endogenous in cells; host or cells: Jurkat clone E6-1 lysate
# T6 sequence (P06241 whole entry): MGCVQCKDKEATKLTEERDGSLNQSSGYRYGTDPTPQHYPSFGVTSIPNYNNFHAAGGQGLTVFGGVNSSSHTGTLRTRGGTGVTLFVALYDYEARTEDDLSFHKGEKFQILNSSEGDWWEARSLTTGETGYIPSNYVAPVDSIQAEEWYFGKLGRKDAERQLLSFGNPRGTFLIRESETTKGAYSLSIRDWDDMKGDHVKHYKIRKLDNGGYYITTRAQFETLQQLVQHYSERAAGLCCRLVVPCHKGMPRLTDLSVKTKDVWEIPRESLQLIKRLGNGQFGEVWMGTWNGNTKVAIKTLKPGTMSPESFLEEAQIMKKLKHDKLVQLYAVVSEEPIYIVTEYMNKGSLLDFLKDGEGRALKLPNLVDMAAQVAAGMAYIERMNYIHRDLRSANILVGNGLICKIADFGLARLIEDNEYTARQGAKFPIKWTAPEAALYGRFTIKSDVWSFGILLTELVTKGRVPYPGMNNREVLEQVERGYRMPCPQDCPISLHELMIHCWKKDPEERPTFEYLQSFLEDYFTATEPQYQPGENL
# Protocol: as §1, §2, §3, §4, §5, §6
# [4] = target: T7, proteins captured on kinobeads from Jurkat cell lysate (Homo sapiens, UniProt Q9HCP0); assay: as above; conditions: DMSO control = 1.0
# T7 construct: endogenous in cells; host or cells: Jurkat clone E6-1 lysate
# T7 sequence (Q9HCP0 whole entry): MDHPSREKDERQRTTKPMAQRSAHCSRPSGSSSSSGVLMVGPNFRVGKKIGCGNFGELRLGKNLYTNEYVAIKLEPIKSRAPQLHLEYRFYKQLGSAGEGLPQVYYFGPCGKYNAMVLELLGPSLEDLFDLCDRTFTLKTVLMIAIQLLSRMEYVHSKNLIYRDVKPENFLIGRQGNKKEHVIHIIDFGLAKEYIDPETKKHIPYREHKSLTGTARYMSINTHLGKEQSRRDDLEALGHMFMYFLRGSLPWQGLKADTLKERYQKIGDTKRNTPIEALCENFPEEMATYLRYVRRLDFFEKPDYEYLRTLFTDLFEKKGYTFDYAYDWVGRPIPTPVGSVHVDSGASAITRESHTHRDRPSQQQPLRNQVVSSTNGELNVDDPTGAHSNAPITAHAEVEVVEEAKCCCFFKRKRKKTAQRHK
# Protocol: as §1, §2, §3, §4, §5, §6
# [5] = target: T8, proteins captured on kinobeads from Jurkat cell lysate (Homo sapiens, UniProt Q2M2I8); assay: as above; conditions: DMSO control = 1.0
# T8 construct: endogenous in cells; host or cells: Jurkat clone E6-1 lysate
# T8 sequence (Q2M2I8 whole entry): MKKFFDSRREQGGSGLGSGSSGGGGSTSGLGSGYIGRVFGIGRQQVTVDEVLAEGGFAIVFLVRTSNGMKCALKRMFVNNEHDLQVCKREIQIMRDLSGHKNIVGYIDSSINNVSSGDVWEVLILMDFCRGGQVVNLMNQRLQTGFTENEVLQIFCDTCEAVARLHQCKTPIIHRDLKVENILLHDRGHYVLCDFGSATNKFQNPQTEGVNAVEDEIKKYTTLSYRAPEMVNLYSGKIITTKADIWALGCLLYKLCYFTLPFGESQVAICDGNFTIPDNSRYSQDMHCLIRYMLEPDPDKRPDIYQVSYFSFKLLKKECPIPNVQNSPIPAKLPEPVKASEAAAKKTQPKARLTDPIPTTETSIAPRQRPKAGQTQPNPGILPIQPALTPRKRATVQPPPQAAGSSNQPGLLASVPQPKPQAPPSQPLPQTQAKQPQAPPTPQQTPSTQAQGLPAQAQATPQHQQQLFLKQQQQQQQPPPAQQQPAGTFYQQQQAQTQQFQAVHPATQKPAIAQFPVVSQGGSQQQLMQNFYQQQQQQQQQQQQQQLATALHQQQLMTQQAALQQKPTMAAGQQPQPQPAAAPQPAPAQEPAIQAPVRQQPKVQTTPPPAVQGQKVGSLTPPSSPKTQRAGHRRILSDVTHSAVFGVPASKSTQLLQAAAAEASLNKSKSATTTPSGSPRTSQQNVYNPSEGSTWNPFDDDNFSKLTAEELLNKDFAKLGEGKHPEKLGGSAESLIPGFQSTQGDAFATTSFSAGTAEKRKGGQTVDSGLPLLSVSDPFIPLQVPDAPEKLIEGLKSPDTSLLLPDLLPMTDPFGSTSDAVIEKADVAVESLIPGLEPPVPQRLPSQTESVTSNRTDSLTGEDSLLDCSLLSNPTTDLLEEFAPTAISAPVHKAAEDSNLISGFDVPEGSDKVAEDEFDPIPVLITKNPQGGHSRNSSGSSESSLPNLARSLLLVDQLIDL
# Protocol: as §1, §2, §3, §4, §5, §6
# [6] = target: T9, proteins captured on kinobeads from Jurkat cell lysate (Homo sapiens, UniProt Q13131); assay: as above; conditions: DMSO control = 1.0
# T9 construct: endogenous in cells; host or cells: Jurkat clone E6-1 lysate
# T9 sequence (Q13131 whole entry): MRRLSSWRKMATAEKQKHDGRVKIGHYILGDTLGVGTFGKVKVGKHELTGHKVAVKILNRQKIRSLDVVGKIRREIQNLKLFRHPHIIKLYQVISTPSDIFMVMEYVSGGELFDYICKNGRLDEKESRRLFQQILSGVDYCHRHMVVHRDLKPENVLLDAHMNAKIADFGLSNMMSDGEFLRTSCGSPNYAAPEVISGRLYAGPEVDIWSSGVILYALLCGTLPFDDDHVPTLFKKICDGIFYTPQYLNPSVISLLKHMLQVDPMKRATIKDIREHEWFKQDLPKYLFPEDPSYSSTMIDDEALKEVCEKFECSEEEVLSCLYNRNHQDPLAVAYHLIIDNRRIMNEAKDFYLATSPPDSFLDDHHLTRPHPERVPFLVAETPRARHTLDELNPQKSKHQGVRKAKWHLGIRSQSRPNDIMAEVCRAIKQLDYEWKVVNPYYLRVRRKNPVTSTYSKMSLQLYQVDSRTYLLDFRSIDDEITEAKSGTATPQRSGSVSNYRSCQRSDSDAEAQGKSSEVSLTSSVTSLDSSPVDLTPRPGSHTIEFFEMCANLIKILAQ
# Protocol: as §1, §2, §3, §4, §5, §6
compound,measurement,setting,value
"Cn1cc(C2=C(c3cn(CCCN)c4ccccc34)C(=O)NC2=O)c2ccccc21 [Bis VIII, Bisindolylmaleimide VIII]","Relative Intensity, GSK3B",[1]; 0.074 uM in lysate,0.54
same,"Relative Intensity, GSK3B",[1]; 0.67 uM in lysate,0.28
same,IC50,"[1]; Jurkat cell lysate, concentration at which relative intensity of the MS signal is 50% of DMSO control, read-out: RI50 (GSKb)",95 nM
same,"Relative Intensity, PKCb (PRKCB1)",protein kinase C beta; 0.074 uM in lysate,0.29
same,"Relative Intensity, PKCb (PRKCB1)",protein kinase C beta; 0.67 uM in lysate,0.17
same,IC50,"protein kinase C beta; Jurkat cell lysate, concentration at which relative intensity of the MS signal is 50% of DMSO control, read-out: RI50 (PKCb)",21.5 nM
same,"Relative Intensity, GSK3A",[2]; 0.074 uM in lysate,0.50
same,"Relative Intensity, GSK3A",[2]; 0.67 uM in lysate,0.20
same,IC50,"[2]; Jurkat cell lysate, concentration at which relative intensity of the MS signal is 50% of DMSO control, read-out: RI50 (GSKa)",72.7 nM
same,"binding of ITK to kinobeads, Western blot",ITK,not binding of ITK
same,"binding of GSK3alpha to kinobeads, Western blot",GSK3alpha,prevented binding
same,"binding of GSK3beta to kinobeads, Western blot",GSK3beta,prevented binding
same,"Relative Intensity, FYN",[3]; 0.074 uM in lysate,0.91
same,"Relative Intensity, FYN",[3]; 0.67 uM in lysate,0.93
same,"Relative Intensity, CK1g1 (CSNK1G1)",[4]; 0.074 uM in lysate,1.01
same,"Relative Intensity, CK1g1 (CSNK1G1)",[4]; 0.67 uM in lysate,0.96
same,"Relative Intensity, AAK1",[5]; 0.074 uM in lysate,0.82
same,"Relative Intensity, AAK1",[5]; 0.67 uM in lysate,0.75
same,"Relative Intensity, AMPKa1 (PRKAA1)",[6]; 0.074 uM in lysate,0.88
same,"Relative Intensity, AMPKa1 (PRKAA1)",[6]; 0.67 uM in lysate,0.91
